Measurements: patent US20250049914A1, “STEROID ACID-PEPTIDE BASED INTRACELLULAR CARGO DELIVERY” (DEFENCE THERAPEUTICS INC., priority 2021, published 2025)
Where no end group is shown, it is not given here.

Legend:
WT MSCs [1] = assay: OVA-AF647 uptake by WT MSCs; assay type: cell-based, mouse; details: OVA-AF647 admixed with CA-hnRNPA1
Description: (§1) To evaluate OVA uptake, MSCs were first treated with […] of OVA-AF647 admixed with CA-hnRNPA1 for 1 hour at 37° C. then assessed for their fluorescence intensity by flow-cytometry. To evaluate antigen processing, MSCs were incubated with 10 µg/mL OVA-DQ® admixed with A1 at 37° C. Half an hour later, cells were washed, and regular media added. At the end of the indicated incubation time, cells were collected and washed with cold PBS containing 2% FBS. Fluorescence was monitored by flow cytometry.

human WT MSCs [2] = assay: OVA processing by human MSCs, flow cytometry; assay type: cell-based; details: CA-hnRNPA1-treated human MSCs
WT MSCs [3] = assay: Flow cytometry of H2-Kb and I-Ab expression; assay type: cell-based, mouse; details: WT MSCs treated with CA-hnRNPA1
From the text: FIG. 18A and FIG. 18B show the results of antigen cross-presentation assay conducted using CA-hnRNPA1 admixed with OVA compared to controls and CA-SV40. […] For FIGS. 18B, 18E and 18F, n=6/group with *P<0.05, **P<0.01 and ***P<0.001.
FIG. 18G and FIG. 18H show the increase in H2-Kb and I-Ab expression in WT MSCs treated with CA-hnRNPA1, respectively.

WT MSCs [4] = assay: OVA-DQ processing by WT MSCs; assay type: cell-based, mouse; details: OVA-DQ admixed with CA-hnRNPA1
Description: as §1

human WT MSCs [5] = assay: OVA uptake by human MSCs, flow cytometry; assay type: cell-based; details: CA-hnRNPA1-treated human MSCs
MSCs [6] = assay: Flow cytometry assessment of ROS production; assay type: cell-based, mouse; details: WT MSCs
From the text: Dp44mt was used as a positive control. […] For FIGS. 19A-19C, n=6/group with *P<0.05, **P<0.01 and ***P<0.001.
Next, the mechanism involved in cross presentation enhancement of steroid acid-peptide conjugates was further dissected.

cpMSCs = assay: OVA-AF647 internalization in cpMSCs, flow cytometry; assay type: cell-based; details: various molar ratios
Description: For this experiment, a cross-presenting mesenchymal stromal cell line (cpMSC) was used as the antigen presenting cells, which were pulsed with the OVA cargo labelled with Alexa Fluor 647 (i.e., OVA^647)^TM. OVA^647 fluorescence was measured by flow cytometry. Different ratios of CA (NLS1 RPS17 [FIG. 16A]; NLS3 RPS17 [FIG. 16B]; and PQBP-1 [FIG. 16C] to antigen (CA: OVA=22:1, 12:1, 8:1, 4:1, and 2:1) were tested (hnRNPA1 M9 NLS at 2:1).
To further dissect the effect of bile acid peptide conjugates on antigen presentation, antigen internalization and processing were evaluated. cpMSCs were pulsed with OVA-labelled with AF647 in the presence of various molar ratios of different bile acid peptide conjugates, NLS1-RPS17 [FIG. 16A]; NLS3 RPS17 [FIG. 16B]; PQBP-1 [FIG. 16C]; and hnRNPA1 M9 NLS [FIG. 6]) and fluorescence was assessed by flow cytometry. […] OVA processing was assessed by pulsing cpMSCs with DQ™-Ovalbumin (OVA-DQ) in the presence of the same bile acid peptide conjugates as in FIGS. 6 and 16.

MSCs [7] = assay: Endosomal escape, apoptosis assay with recombinant cytochrome C; assay type: cell-based, mouse; details: CA-hnRNPA1 50 μM, 6 h
Description: Endosomal leakage was assessed using an apoptosis assay. Briefly, 10′ MSCs were first supplemented with 10 mg/mL of exogenous rCyt-C for 6 h at 37° C. in the presence or absence of CA-hnRNPA1 (50 μM). Once the incubation period completed, the cells were collected using Accutase®, washed with ice cold PBS, then stained for Annexin-V according to manufacturer's instructions prior to analysis using BD FACS Diva™ on CANTOII™.

## CA-hnRNPA1: cholic acid conjugated to hnRNPA1 M9 NLS peptide CSNFGPMKGGNFGGRSSGPY (SEQ ID NO: 4) (not fully specified (N-terminus); also: cholic acid conjugate, site not given here)
WT MSCs [1]
  OVA uptake by WT MSCs: increase in OVA uptake
Human WT MSCs [2]
  OVA processing by human MSCs: increase of OVA processing
WT MSCs [3]
  I-Ab expression: increase
WT MSCs [4]
  OVA processing by WT MSCs: increase in OVA processing
Human WT MSCs [5]
  OVA uptake by human MSCs: increase of OVA uptake
MSCs [6]
  ROS production by MSCs: increase in ROS production
cpMSCs
  OVA internalization (OVA-AF647 fluorescence): enhance OVA internalization
MSCs [7]
  endosomal membrane damage (co-treatment with recombinant cytochrome C): endosomal membrane damaging properties
